Laboratory results from article PMC9958325 (Nature Communications, 2023).
Where “and” joins values, the source holds several entries; their conditions need not be identical. Identical values can stand only once. Like-named read-outs stand apart in the source and are kept apart here.

Experiments:
VeroE6 cells [1] = settings: African green monkey, 6 h
in vivo = settings: male, PXB (human liver-chimeric), mouse, po, 10 mg/kg
in vitro [2] = settings: African green monkey, VeroE6 cells
in vitro [3] = settings: human, HeLa-ACE2-TMPRSS2 cells
SARS-CoV-2 M^pro/3CL^pro = SARS-CoV-2 M^pro/3CL^pro (Severe acute respiratory syndrome coronavirus 2, UniProt P0DTD1); format: biochemical; design: IC95, individual assays / IC95, Average: unit: µM
human cathepsin L = molecular target: T1, human cathepsin L (Homo sapiens, UniProt P07711); test: Human cathepsin L inhibitor screening assay; format: biochemical; settings: for % inhibition against human Cathepsin: triplicate; for IC50: 30 minute incubation, mean ± 1 S.D., n=3
T1 construct: purchased abcam ab197012

[4] = test system: SARS-CoV-2NC928-2N^Omicron_BA.1; design: species or system hACE2 knock-in mice; settings: mouse, in vivo; for Virus titer in lung: ip
SARS-CoV-2UW-5250^Delta = test system: SARS-CoV-2UW-5250^Delta; design: species or system hACE2 knock-in mice; settings: mouse, in vivo, ip, 100 mg/kg
SARS-CoV-2 M^pro = SARS-CoV-2 M^pro (Severe acute respiratory syndrome coronavirus 2, UniProt P0DTD1); settings: PDB 8DOX (TKB245), 8DPR (TKB248)
A549-ACE2-TMPRSS2 cells = settings: read-out: CC50, A549-ACE2-TMPRSS2; noninfected cells
[5] = Pharmacokinetic study in ICR mice
VeroE6 cells [6] = test: Cytotoxicity (WST-8) in noninfected VeroE6 cells
HeLa-ACE2-TMPRSS2 cells = test: Cytotoxicity (WST-8) in noninfected HeLa-ACE2-TMPRSS2 cells; settings: read-out: CC50, HeLa-ACE2-TMPRSS2
[7] = test system: SARS-CoV-2NCD1288^Omicron_BA.2; design: species or system hACE2 knock-in mice; settings: mouse, in vivo, ip, 120 mg/kg
[8] = molecular target: authentic SARS-CoV-2 M^pro (Severe acute respiratory syndrome coronavirus 2, UniProt P0DTD1)
Glycine-added M^pro = Glycine-added M^pro (Severe acute respiratory syndrome coronavirus 2, UniProt P0DTD1)
[9] = source data, M^pro enzyme assay
[10] = read-out: CC50, VeroE6 + 2 µM CP100356, CP100356 2 µM

T1 sequence (P07711 114-333): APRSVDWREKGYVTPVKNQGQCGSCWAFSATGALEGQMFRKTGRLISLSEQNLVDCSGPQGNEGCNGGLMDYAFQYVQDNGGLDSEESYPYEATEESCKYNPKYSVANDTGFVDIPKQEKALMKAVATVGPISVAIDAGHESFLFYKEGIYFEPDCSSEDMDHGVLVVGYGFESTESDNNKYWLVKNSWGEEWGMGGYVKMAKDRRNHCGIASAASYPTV

Compound	SARS-CoV2 M^pro enzyme assay IC95 (SARS-CoV-2 M^pro/3CL^pro; FRET, mean ± 1 S.D.) [µM]	IC95, Average (SARS-CoV-2 M^pro/3CL^pro; [9])	Effect on human cathepsin L (in words) (human cathepsin L)	% inhibition against human Cathepsin (human cathepsin L; 0.00106 µM) [%]	% inhibition against human Cathepsin (human cathepsin L; 0.0053 µM) [%]	% inhibition against human Cathepsin (human cathepsin L; 0.0266 µM)	% inhibition against human Cathepsin (human cathepsin L; 0.6 µM)	% inhibition against human Cathepsin (human cathepsin L; 3.3 µM)	% inhibition against human Cathepsin (human cathepsin L; 16.6 µM)	IC50 (human cathepsin L) [µM]	Binding mode in co-crystal structure (SARS-CoV-2 M^pro)	CC50 (A549-ACE2-TMPRSS2 cells) [µM]	CC50 (HepG2 cells) [µM]	CC50 (VeroE6 cells [6]; read-out: CC50, VeroE6) [µM]	CC50 (VeroE6 cells [6]; [10]) [µM]	CC50 (HeLa-ACE2-TMPRSS2 cells) [µM]	other results
CC(C)(C)[C@H](NC(=O)C(F)(F)F)C(=O)N1C[C@H]2[C@@H]([C@H]1C(=O)N[C@H](C#N)C[C@@H]1CCNC1=O)C2(C)C [Nirmatrelvir, reference compound]																	Intracellular amount, avg (VeroE6 cells [1]; 10 µM): 0 pmol(total); Intracellular amount, individual (VeroE6 cells [1]; 10 µM): 0 pmol(total); intracellular compound, /1x10^6 (VeroE6 cells [1]; 10 µM): 0 /1x10^6; intracellular compound, pmol(total) (VeroE6 cells [1]; 10 µM): 0 pmol; Intracellular amount, avg (VeroE6 cells [1]; 50 µM): 0.03906 pmol(total); Intracellular amount, avg (VeroE6 cells [1]; 100 µM): 0.1149 pmol(total); half-life (in vivo): 1.03 h; CC50 at 3 days (in vitro [2]): > 100 µM; CC50 at 3 days (in vitro [3]): > 100 µM
CC(C)(C)[C@H](NC(=O)C(F)(F)F)C(=O)N1C[C@H]2[C@@H]([C@H]1C(=O)N[C@@H](C[C@@H]1CCNC1=O)C(=O)c1nc3c(F)cccc3s1)C2(C)C [TKB245]	0.14 ± 0.07	0.1363	neither of human cysteine enzymes, cathepsin L and calpain, were significantly affected	0	0	0% and 0.8979%	0% and 2.5149%	9.142% and 0% and 2.217%	21.1326% and 17.6611% and 11.0896%	> 16	covalent bond formation between Cys145 and 4-fluorobenzothioazoly ketone	> 100	> 200	> 100	> 100	> 100	IC95, individual assays (SARS-CoV-2 M^pro/3CL^pro; source data, M^pro enzyme assay, listed as TKB0245): 0.096 and 0.213 and 0.100; Virus titer in lung ([4]; 100 mg/kg): 2.95 Log10 PFU/gr and 3.55 Log10 PFU/gr; Virus titer in lung (SARS-CoV-2UW-5250^Delta): 6.24 Log10 PFU/gr and 6.89 Log10 PFU/gr; Plasma concentration ([5]; ICR mice, i.p. 10 mg/kg, 2:00:00, individual mice, 10 mg/kg): 528.9 ng/mL; Plasma concentration ([5]; ICR, i.p., 120 min, individual animals (2 per time point), LC/MS/MS): 528.86 ng/mL
CC(C)(C)[C@H](NC(=O)C(F)(F)F)C(=O)N1C[C@H]2[C@@H]([C@H]1C(=S)N[C@@H](C[C@@H]1CCNC1=O)C(=O)c1nc3c(F)cccc3s1)C2(C)C [TKB248]	6.00 ± 5.29	6.000	neither of human cysteine enzymes, cathepsin L and calpain, were significantly affected	0	0	0%	0.7754% and 0%	3.874% and 0.1997% and 5.01%	10.3453% and 15.2677% and 19.1834%	> 16	covalent bond formation between Cys145 and 4-fluorobenzothioazoly ketone	> 100	> 200	> 100	> 100	> 100	IC50 (SARS-CoV-2 M^pro/3CL^pro; FRET, mean ± 1 S.D., read-out: SARS-CoV2 M^pro enzyme assay IC50): 0.074 ± 0.034 µM; IC95, individual assays (SARS-CoV-2 M^pro/3CL^pro; source data, M^pro enzyme assay, listed as TKB0248): 12.00 and 2.000 and 4.000; IC50 (SARS-CoV-2 M^pro/3CL^pro; source data, M^pro enzyme assay, listed as TKB0248, read-out: IC50, individual assays): 0.0472 µM and 0.0622 µM and 0.113 µM; IC50 (SARS-CoV-2 M^pro/3CL^pro; source data, M^pro enzyme assay, read-out: IC50, Average): 0.0741 µM; lung virus titer, ave of log pfu/g [4]: 4.602 log pfu/g and 4.836 log pfu/g; Virus titer in lung ([4]; 120 mg/kg): 4.60 Log10 PFU/gr and 4.84 Log10 PFU/gr; Virus titer in lung [7]: 5.57 Log10 PFU/gr and 4.93 Log10 PFU/gr; Peak ratio, Dimer-1X compound [8]: 42.6% and 25.2%; Peak ratio, M^pro Monomer [8]: 8.6% and 7.7%; Peak ratio, Monomer (Glycine-added M^pro): 36.5%; Peak ratio, Monomer-1X compound (Glycine-added M^pro): 21.2%
